Species: Rattus norvegicus
Test: DrugMatrix - Regimen: Daily Repeat
Assay type: toxicity, organism-based, Sprague-Dawley
Parameters: regimen Daily Repeat, gender Male, age 6-8 weeks
Settings: in vivo, po, route oral GAVAGE, vehicle 100 % WATER; for ABSOLUTE BASOPHIL / ABSOLUTE EOSINOPHIL / ABSOLUTE LYMPHOCYTE / ABSOLUTE MONOCYTE / ABSOLUTE SEGMENTED NEUTROPHIL / BASOPHIL / EOSINOPHIL / ERYTHROCYTE COUNT / HEMATOCRIT / HEMOGLOBIN / LEUKOCYTE COUNT / LYMPHOCYTE / MEAN CORPUSCULAR HEMOGLOBIN / MEAN CORPUSCULAR HEMOGLOBIN CONCENTRATION / MEAN CORPUSCULAR VOLUME / MONOCYTE / NEUTROPHIL / NUCLEATED RED BLOOD CELLS / PLATELET COUNT: tissue Blood; for ALANINE AMINOTRANSFERASE / ALBUMIN / ALKALINE PHOSPHATASE / ASPARTATE AMINOTRANSFERASE / BLOOD UREA NITROGEN / CARBON DIOXIDE / CHLORIDE / CHOLESTEROL / CREATINE PHOSPHOKINASE / CREATININE / GLUCOSE / LACTATE DEHYDROGENASE / LIPASE / PHOSPHORUS / POTASSIUM / SODIUM / TOTAL BILIRUBIN / TOTAL PROTEIN / URIC ACID: tissue Plasma
[1] = 120 mg/kg, 120 h, dose level Low, time 5 day
[2] = 1695 mg/kg, 72 h, dose level High, time 3 day
[3] = 1695 mg/kg, 120 h, dose level High, time 5 day

Nc1ccc(S(=O)(=O)Nc2ccnn2-c2ccccc2)cc1 [SULFAPHENAZOLE]
ABSOLUTE BASOPHIL [1]: 0 CELLS/uL
ABSOLUTE EOSINOPHIL [1]: 0 CELLS/uL
ABSOLUTE LYMPHOCYTE [1]: 12168 CELLS/uL
ABSOLUTE MONOCYTE [1]: 171.33 CELLS/uL
ABSOLUTE SEGMENTED NEUTROPHIL [1]: 1260.67 CELLS/uL
BASOPHIL [1]: 0%
EOSINOPHIL [1]: 0%
ERYTHROCYTE COUNT [1]: 5.32 x10E6/uL
HEMATOCRIT [1]: 32.93%
HEMOGLOBIN [1]: 13.2 G/DL
LEUKOCYTE COUNT [1]: 13.6 x10E3/uL
LYMPHOCYTE [1]: 88.67%
MEAN CORPUSCULAR HEMOGLOBIN [1]: 24.8 pg
MEAN CORPUSCULAR HEMOGLOBIN CONCENTRATION [1]: 40.07 G/DL
MEAN CORPUSCULAR VOLUME [1]: 61.87 fL
MONOCYTE [1]: 1.33%
NEUTROPHIL [1]: 10%
NUCLEATED RED BLOOD CELLS [1]: 0 /100WBC
PLATELET COUNT [1]: 1135.33 x10E3/uL
ALANINE AMINOTRANSFERASE [1]: 44 u/L
ALBUMIN [1]: 4.37 G/DL
ALKALINE PHOSPHATASE [1]: 314.33 u/L
ASPARTATE AMINOTRANSFERASE [1]: 85.33 u/L
BLOOD UREA NITROGEN [1]: 17.67 mg/dL
CARBON DIOXIDE [1]: 25 mmol/L
CHLORIDE [1]: 101.67 MEQ/L
CHOLESTEROL [1]: 55.33 mg/dL
CREATINE PHOSPHOKINASE [1]: 560.67 u/L
CREATININE [1]: 0.19 mg/dL
GLUCOSE [1]: 147.33 mg/dL
LACTATE DEHYDROGENASE [1]: 243.67 u/L
LIPASE [1]: 10.67 u/L
PHOSPHORUS [1]: 11.43 mg/dL
POTASSIUM [1]: 6.3 MEQ/L
SODIUM [1]: 141.23 MEQ/L
TOTAL BILIRUBIN [1]: 0.17 mg/dL
TOTAL PROTEIN [1]: 5.93 G/DL
URIC ACID [1]: 1.83 mg/dL
ABSOLUTE BASOPHIL [2]: 0 CELLS/uL
ABSOLUTE EOSINOPHIL [2]: 148.67 CELLS/uL
ABSOLUTE LYMPHOCYTE [2]: 12946.33 CELLS/uL
ABSOLUTE MONOCYTE [2]: 179 CELLS/uL
ABSOLUTE SEGMENTED NEUTROPHIL [2]: 1226 CELLS/uL
BASOPHIL [2]: 0%
EOSINOPHIL [2]: 1%
ERYTHROCYTE COUNT [2]: 6.24 x10E6/uL
HEMATOCRIT [2]: 37.43%
HEMOGLOBIN [2]: 14.4 G/DL
LEUKOCYTE COUNT [2]: 14.5 x10E3/uL
LYMPHOCYTE [2]: 89.33%
MEAN CORPUSCULAR HEMOGLOBIN [2]: 23.1 pg
MEAN CORPUSCULAR HEMOGLOBIN CONCENTRATION [2]: 38.5 G/DL
MEAN CORPUSCULAR VOLUME [2]: 60.03 fL
MONOCYTE [2]: 1.33%
NEUTROPHIL [2]: 8.33%
NUCLEATED RED BLOOD CELLS [2]: 0.33 /100WBC
PLATELET COUNT [2]: 1221 x10E3/uL
ALANINE AMINOTRANSFERASE [2]: 93.67 u/L
ALBUMIN [2]: 4.27 G/DL
ALKALINE PHOSPHATASE [2]: 470.33 u/L
ASPARTATE AMINOTRANSFERASE [2]: 97.33 u/L
BLOOD UREA NITROGEN [2]: 20 mg/dL
CARBON DIOXIDE [2]: 28.67 mmol/L
CHLORIDE [2]: 98 MEQ/L
CHOLESTEROL [2]: 66 mg/dL
CREATINE PHOSPHOKINASE [2]: 349 u/L
CREATININE [2]: 0.24 mg/dL
GLUCOSE [2]: 138 mg/dL
LACTATE DEHYDROGENASE [2]: 231 u/L
LIPASE [2]: 12 u/L
PHOSPHORUS [2]: 11.17 mg/dL
POTASSIUM [2]: 6.38 MEQ/L
SODIUM [2]: 138.87 MEQ/L
TOTAL BILIRUBIN [2]: 0.17 mg/dL
TOTAL PROTEIN [2]: 5.9 G/DL
URIC ACID [2]: 1.43 mg/dL
ABSOLUTE BASOPHIL [3]: 0 CELLS/uL
ABSOLUTE EOSINOPHIL [3]: 0 CELLS/uL
ABSOLUTE LYMPHOCYTE [3]: 12966.33 CELLS/uL
ABSOLUTE MONOCYTE [3]: 311 CELLS/uL
ABSOLUTE SEGMENTED NEUTROPHIL [3]: 1656 CELLS/uL
BASOPHIL [3]: 0%
EOSINOPHIL [3]: 0%
ERYTHROCYTE COUNT [3]: 5.99 x10E6/uL
HEMATOCRIT [3]: 35.5%
HEMOGLOBIN [3]: 13.53 G/DL
LEUKOCYTE COUNT [3]: 14.93 x10E3/uL
LYMPHOCYTE [3]: 86.67%
MEAN CORPUSCULAR HEMOGLOBIN [3]: 22.57 pg
MEAN CORPUSCULAR HEMOGLOBIN CONCENTRATION [3]: 38.1 G/DL
MEAN CORPUSCULAR VOLUME [3]: 59.27 fL
MONOCYTE [3]: 2%
NEUTROPHIL [3]: 11.33%
NUCLEATED RED BLOOD CELLS [3]: 0 /100WBC
PLATELET COUNT [3]: 1318 x10E3/uL
ALANINE AMINOTRANSFERASE [3]: 117.33 u/L
ALBUMIN [3]: 4.47 G/DL
ALKALINE PHOSPHATASE [3]: 435.33 u/L
ASPARTATE AMINOTRANSFERASE [3]: 99.67 u/L
BLOOD UREA NITROGEN [3]: 16.33 mg/dL
CARBON DIOXIDE [3]: 25 mmol/L
CHLORIDE [3]: 99 MEQ/L
CHOLESTEROL [3]: 48 mg/dL
CREATINE PHOSPHOKINASE [3]: 444.33 u/L
CREATININE [3]: 0.22 mg/dL
GLUCOSE [3]: 150.33 mg/dL
LACTATE DEHYDROGENASE [3]: 121.33 u/L
LIPASE [3]: 12 u/L
PHOSPHORUS [3]: 11.27 mg/dL
POTASSIUM [3]: 5.55 MEQ/L
SODIUM [3]: 141.73 MEQ/L
TOTAL BILIRUBIN [3]: 0.23 mg/dL
TOTAL PROTEIN [3]: 5.87 G/DL
URIC ACID [3]: 1.37 mg/dL

Source: ChEMBL document CHEMBL3885881, “DrugMatrix”
